In general, inhibition refers to the share of the control response that was lost under treatment. Broadly, the chromatographic logP is a lipophilicity value derived from retention on a column. Read a low chromatographic logP as lower lipophilicity.

The subject of series [1] is Leptnosphaeria nodorum. Kind of series: Example D: Leptnosphaeria nodorum in vitro cell test. In kind it is cell-based. The following applies: 144 h, read-out: efficacy (inhibition of fungal growth).
Another series concerns Pyricularia oryzae. Description: microbe, parasite or virus in culture. The following applies: 120 h, read-out: efficacy (inhibition of fungal growth). The series is classed as cell-based.
In series [2] the test system is Colletotrichum lindemuthianum. Description: Example K: comparative data, in vivo preventive test on Colletotrichum lindemuthianum (antrachnose on bean). The following applies: rate of application 500 ppm, evaluated 6 days after inoculation.
Series [3] in a line: Log P by HPLC on reversed phase columns, method [a] (acidic range, 0.1% formic acid). The following applies: HPLC on reversed phase columns, method [a]: acidic range.
Procedure: In the following, measurement of Log P values was performed according to EEC directive 79/831 Annex V.A8 by HPLC (High Performance Liquid Chromatography) on reversed phase columns with the following methods: • ^[a]
If more than one Log P value is available within the same method, all the values are given and separated by “+”.
Calibration was done with straight-chain alkan2-ones (with 3 to 16 carbon atoms) with known Log P values (measurement of Log P values using retention times with linear interpolation between successive alkanones).
Another series deals with Septoria tritici. Description: Example L: comparative data, Septoria tritici in vitro cell test. The series is classed as cell-based. The settings on record: rate of application 4 ppm; 7 days incubation. As for the experimental part: Comparative Data—Septoria tritici In Vitro Cell Test Solvent: DMSOCulture medium: 14.6 g anhydrous D-glucose (VWR), 7.1 g Bacteriological Peptone (Oxoid), 1.4 g granulated Yeast Extract (Merck), QSP 1 literInoculum: spore suspension The compounds to be tested were solubilized in DMSO and the solution used to prepare the required range of concentrations. […] A spore suspension of S. tritici was prepared and diluted to the desired spore density. The tested compounds were evaluated for their ability to inhibit spore germination and mycelium growth in liquid culture assay. The compounds were added in the desired concentration to the culture medium to with spores. […] Inhibition of fungal growth was determined by comparing the absorbance values in wells containing the tested compound with the absorbance in control wells without tested compound.

Series [4] concerns Colletotrichum lindemuthianum. Description: Example F: Colletotrichum lindemuthianum in vitro cell test. The settings on record: 144 h, read-out: efficacy (inhibition of fungal growth). In kind it is cell-based.
The next series has as its system Botrytis cinerea. Kind of series: Example H: comparative data, in vivo preventive test on Botrytis cinerea (grey mould), gherkin. The following applies: rate of application 500 ppm, evaluated 4 to 5 days after inoculation.
Series [5] deals with Leptnosphaeria nodorum. Kind of series: Example I: comparative data, Leptnosphaeria nodorum in vitro cell test. The series is classed as cell-based. The following applies: rate of application 4 ppm; 6 days incubation.
The next series deals with Ustilago avenae. Kind of series: Example J: comparative data, Ustilago avenae in vitro cell test. The series is classed as cell-based. The following applies: rate of application 20 ppm; 4 days incubation.

As for `CC(C)n1ccc(-c2c(F)cccc2Nc2cnc3ccccc3c2)n1` [Example I-027], the inhibition at 20 ppm in the series on Leptnosphaeria nodorum [1] was 80 to 89%; with Pyricularia oryzae it was 90 to 100%. Besides, the Efficacy in % in series [2] is recorded as 65%. Besides, the logP in [3] is 4.05 ^[a].

In the case of `CC(C)(O)c1ccnn1-c1ccccc1Nc1cnc2ccccc2c1` [Example I-063], the Efficacy in % in the series on Septoria tritici is listed as 96%. The same molecule showed a chromatographic logP in series [3] of 1.79.

In the case of `C=C(C)c1ccnn1-c1ccccc1Nc1cnc2ccccc2c1` [Example I-066], the inhibition at 20 ppm in the series with Leptnosphaeria nodorum [1] was in the range of 90 to 100%; in the series with Pyricularia oryzae it was 90 to 100%; in [4], 80 to 89%. The Efficacy in % with Botrytis cinerea amounted to 98%; in the series on Leptnosphaeria nodorum [5], 94%; in the series on Ustilago avenae, 63%. The same molecule came in with a chromatographic logP in [3] of 2.73.

`CC(C)n1ccc(-c2c(F)cccc2Nc2cnc3ccccc3c2)n1` [Example I-067] came in with an Efficacy in % with Botrytis cinerea of 95%. Further, in [3], the logP is 1.94 ^[a].

`C=C(C)c1ccnn1-c1ccccc1Oc1cnc2ccccc2c1` [drawing 50, reference compound] registered an Efficacy in % with Leptnosphaeria nodorum [5] of 64%.

With `C=C(C)c1ccnn1-c1ccccc1Oc1cnc2ccccc2c1` [drawing 52, reference compound], in the series on Ustilago avenae, the Efficacy in % is on record as 1%.

The molecule `CC(C)n1ccc(-c2c(F)cccc2Oc2cnc3ccccc3c2)n1` [drawing 54, reference compound] showed an Efficacy in % in series [2] of 0%.

`CC(C)(O)c1ccnn1-c1ccccc1Oc1cnc2ccccc2c1` [reference compound] registered an Efficacy in % in the series on Septoria tritici of 0%.

The values above are taken from patent US11457629B2, “Heteroarylphenylaminoquinolines and analogues” (Bayer Aktiengesellschaft, priority 2017, dated 2022).
